Source: publication PMC11314621, “Cheminformatics-Guided Exploration of Synthetic Marine Natural Product-Inspired Brominated Indole-3-Glyoxylamides and Their Potentials for Drug Discovery” (Molecules, 2024)
Read-outs that look alike come from different tables or passages of the source.

Key:
protein kinase C = settings: ref [15]; cited from earlier work
SARS-CoV-2 3CLpro [1] = molecular target: T1, SARS-CoV-2 3CLpro (Severe acute respiratory syndrome coronavirus 2, UniProt P0DTD1); settings: cited from earlier work; for inhibition of SARS-CoV-2 3CLPro: ref [33]
T1 construct: Each well contained 25 nM of SARS-CoV-2 3CL^Pro and eCFP-Venus biosensor (500 nM)

elastase = tested on: elastase; parameters: method as in PMID 37609780; settings: ref [36]; cited from earlier work
prion = settings: cited from earlier work
SARS-CoV-2 3CLpro [2] = molecular target: T1, SARS-CoV-2 3CLpro; assay: biochemical
[3] = molecular target: T2, α-chymotrypsin from bovine pancreas (Bos taurus, UniProt P00766); assay: Serine protease assay, chymotrypsin; type: biochemical; settings: for % enzyme activity @ 10 µM, chymotrypsin / remaining activity at 10 µM: remaining enzyme activity; for IC50: IC50 ± standard deviation
T2 construct: α-chymotrypsin from bovine pancreas (Sigma, C4129); purchased Sigma C4129; host or cells: bovine pancreas
Method: (§1) Serine protease-inhibitory activities for 25–56 were determined in 96 well plates. Each inhibitor was initially tested in duplicate against elastase and chymotrypsin at 10 µM. […] Assays for the inhibition of elastase were undertaken using high-purity porcine pancreatic elastase (Sigma, Melbourne, Victoria, Australia, E0258) in an assay buffer of 50 mM Tris-HCl (pH 8.0) at room temperature. Dilutions of each inhibitor (originally resuspended in DMSO) were prepared in triplicate and then preincubated with 375 ng of elastase for 15 min at room temperature in a total reaction volume of 85 µL. Following this preincubation, 15 µL of 2 mM N-succinyl-Ala-Ala-Ala-p-nitroanilide (Sigma, S4760) in assay buffer was added to each well and kinetic measurement of absorbance at 405 nm (Tecan Spark Plate Reader, Zürich, Switzerland) was undertaken for 30 min. […] Dilutions of each inhibitor were prepared in triplicate and preincubated with 5 µg of chymotrypsin for 10 min at 37 °C in a total reaction volume of 75 µL. After preincubation, 25 µL of 2 mM N-succinyl-Gly-Gly-Phe-p-nitroanilide (Sigma, S1899) was added to each well and kinetic measurement of absorbance at 405 nm was undertaken for 30 min. Inhibitory activity was determined by comparison of the slope of the reaction curve for multiple dilutions of the inhibitor to that of an equivalent solvent control and expressed as IC50 ± standard deviation.

HEK293 cells = assay: HEK293 cell cytotoxicity; type: cell-based; settings: 60 µM, human embryonic kidney cell line
P. falciparum Dd2 = assay: Antiplasmodial image-based assay, Dd2 strain; type: cell-based, Plasmodium falciparum; settings: chloroquine-resistant P. falciparum strain Dd2
Method: (§2) An anti-plasmodial imaging assay reported by Duffy and Avery was used to examine the antiplasmodial activities of synthetic indoles 25, 26, 36, 37, 38, 40, 41, 43, 45, 46, 47, 48, 50 and 51. All compounds were diluted to […] in DMSO and tested at three increasing concentrations from 0.4 nM–40 μM per log dose in a 16-point CRC ([…]) parasite strains of Plasmodium falciparum. […] Normalised percent inhibition data was obtained using in-plate positive (4 μM DHA) and negative (0.4% DMSO) controls, which were then used to calculate IC50 values. Compounds were incubated in CellCarrier-384 well imaging plates in the presence of 2% parasitemia (3D7 or Dd2) at 0.3% hematocrit in a total assay volume of 50 μL for 72 h at 37 °C, 5% O2, 5% CO2 and 90% N2. After incubation, plates were stained with 4′,6-diamidino-2-phenylindole (DAPI) and imaged using an Opera Phenix high-content imaging system (Revvity, Mulgrave, Victoria, Australia). Images were analysed using Harmony (Revvity) software (version 3), while percent parasite inhibition was calculated using the minimum (0.4% DMSO) and (DHA). IC50 values were determined by plotting % inhibition against log dose and analysed using nonlinear regression and sigmoidal dose-response using GraphPad Prism version 6.

α-synuclein = molecular target: T3, α-synuclein (Homo sapiens, UniProt P37840); assay: In vitro α-synuclein affinity MS-binding assay; settings: 3 h incubation, 5:1 molar ratio, (+)-HRESIMS
T3 construct: α-synuclein protein solutions (10 μM) were prepared in 10 mM ammonium acetate
Method: The synthetic indoles were incubated with α-syn for 3 h at a 5:1 molar ratio, after which a (+)- mode high-resolution MS spectrum was acquired.
α-synuclein protein solutions (10 μM) were prepared in 10 mM ammonium acetate. Synthetic IGAs 25, 26, 34, 41, 45, 46, 51, and 52 (100 μM) were dissolved in 100% MeOH and incubated with α-syn at room temperature for 3 h. Protein-ligand interactions were analysed using (+) HRESIMS calibrated with sodium trifluoroacetate (0.1 mg/mL) with the following parameters: nebuliser 2.0 Bar; dry gas 7 L/min; dry temp 150 °C; funnel I RF 400 Vpp; end plate offset 500 V; capillary 4500 V; ISCID 0.0 ev; ion energy 4.0 eV; transfer time 100 μs; multipole RF 800 Vpp; collision RF 1200 Vpp; prepulse storage 10 μs; spectra rate: 2 × 100 Hz. The resulting spectra were analysed for additional peaks representing complexes formed between α-syn and active compounds.

P. falciparum 3D7 = assay: Antiplasmodial image-based assay, 3D7 strain; type: cell-based, Plasmodium falciparum; settings: chloroquine-sensitive P. falciparum strain 3D7
Method: as §2

[4] = molecular target: T4, porcine pancreatic elastase (Sus scrofa, UniProt P00772); assay: Serine protease assay, elastase; type: biochemical; settings: remaining enzyme activity
T4 construct: high-purity porcine pancreatic elastase (Sigma, Melbourne, Victoria, Australia, E0258); purchased Sigma E0258
Method: as §1

HIV-1 = tested on: HIV-1; parameters: method as in PMID 34095843, PMID 30940396; settings: ref [34],[35]; cited from earlier work

T4 sequence (P00772 27-266): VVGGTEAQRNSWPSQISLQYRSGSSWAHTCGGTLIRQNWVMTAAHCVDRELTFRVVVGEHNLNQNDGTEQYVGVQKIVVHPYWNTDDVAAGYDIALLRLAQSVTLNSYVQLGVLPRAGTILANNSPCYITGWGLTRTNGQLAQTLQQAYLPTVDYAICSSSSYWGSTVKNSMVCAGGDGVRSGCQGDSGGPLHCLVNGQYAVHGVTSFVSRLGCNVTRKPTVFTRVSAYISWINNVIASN

Question: For `CO[C@@H]1[C@H](NC(=O)C(=O)c2c[nH]c3ccccc23)C[C@H]2O[C@]1(C)n1c3ccccc3c3c4c(c5c6ccccc6n2c5c31)C(=O)NC4` [Compound 13, 13G-291], which “protein kinase C inhibition” value (protein kinase C) is on record?
Answer: The value was “only weak inhibition”.

Question: What does the source list for `CC[C@H](C)[C@@H]1NC(=O)[C@H](CC(C)C)NC(=O)[C@@H](N2C(=O)N[C@@H](C)C2=O)CNC(=O)[C@H](CS(=O)(=O)O)NC(=O)/C=C/c2csc(n2)[C@H](Cc2ccc(O)cc2)NC(=O)C1=O` [Compound 66, cyclotheonellazole D]?
Answer: change of SARS-CoV-2 3CLPro inhibition in the presence of DTT (SARS-CoV-2 3CLpro [1]; DTT (4 mM) versus no DTT, ref [36]): more than eightfold reduction; elastase inhibition (elastase): nanomolar potent inhibitor

Question: With purealidine Q as the compound, how does the “anti-prion activity in a yeast-based assay” value (prion) read?
Answer: Its value is “micromolar anti-prion activities”.

Question: Which “% inhibition @ 20 µM, No DTT” value (SARS-CoV-2 3CLpro [2]; 20 µM, no DTT) does the source give for `O=C(N[C@@H](Cc1c[nH]c2ccccc12)C(=O)O)C(=O)c1c[nH]c2ccc(Br)cc12` [Compound 45, 5-bromoindolyl-3-glyoxyl-L-tryptophan] here?
Answer: The value was 21.8%.

Question: And the “% inhibition @ 20 µM, DTT” value (SARS-CoV-2 3CLpro [2]; 20 µM, with DTT (4 mM))?
Answer: Its value is 3.7%.

Question: What about the “% enzyme activity @ 10 µM, chymotrypsin” value [3] of the same compound?
Answer: The value was 69.2%.

Question: And the IC50 [3]?
Answer: Its IC50 is 16.3 µM.

Question: And the “% Inhibition @ 60 µM, HEK293” value (HEK293 cells)?
Answer: Its value is 24.0%.

Question: What about the “% Inhibition @ 60 µM, Dd2” value (P. falciparum Dd2; 60 µM, 72 h) of the same compound?
Answer: Its value is 56.0%.

Question: What about the “binding with α-syn (protein-ligand complexes in MS)” value (“binding with α-syn” below) (α-synuclein) of the same compound?
Answer: The value was “α-syn binding displayed”.

Question: And the “% Inhibition @ 60 µM, 3D7” value (P. falciparum 3D7; 60 µM, 72 h)?
Answer: The value was 73.0%.

Question: What about the “% enzyme activity @ 10 µM, elastase” value [4] of the same compound?
Answer: The value was 94.0%.

Question: With `O=C(N[C@@H](Cc1ccc(O)cc1)C(=O)O)C(=O)c1c[nH]c2cc(Br)ccc12` [Compound 51, 6-bromoindolyl-3-glyoxyl-L-tyrosine] as the compound, how does the “% inhibition @ 20 µM, No DTT” value (SARS-CoV-2 3CLpro [2]; 20 µM, no DTT) read?
Answer: The value was 23.3%.

Question: And the “% inhibition @ 20 µM, DTT” value (SARS-CoV-2 3CLpro [2]; 20 µM, with DTT (4 mM))?
Answer: Its value is 6.9%.

Question: What about the “% enzyme activity @ 10 µM, chymotrypsin” value [3] of the same compound?
Answer: The value was 91.8%.

Question: And the “% Inhibition @ 60 µM, HEK293” value (HEK293 cells)?
Answer: The value was 21.5%.

Question: And the “% Inhibition @ 60 µM, Dd2” value (P. falciparum Dd2; 60 µM, 72 h)?
Answer: The value was 56.0%.

Question: What about the “binding with α-syn” value (α-synuclein) of the same compound?
Answer: Its value is “α-syn binding displayed”.

Question: What about the “% Inhibition @ 60 µM, 3D7” value (P. falciparum 3D7; 60 µM, 72 h) of the same compound?
Answer: Its value is 58.0%.

Question: And the “% enzyme activity @ 10 µM, elastase” value [4]?
Answer: The value was 100.3%.

Question: With `O=C[C@H](C[C@@H]1CCNC1=O)NC(=O)[C@H](Cc1cccc(F)c1)NC(=O)c1cc2ccccc2[nH]1` [Compound 63] as the compound, how does the “inhibition of SARS-CoV-2 3CLPro” value (SARS-CoV-2 3CLpro [1]) read?
Answer: Its value is “nanomolar inhibition”.

Question: Which “inhibition of HIV-1” value (HIV-1) does the source give for `C[C@@H]1CN(C(=O)c2ccccc2)CCN1C(=O)C(=O)c1c[nH]c2ccccc12` [Compound 65] here?
Answer: Its value is “nanomolar inhibition”.

Question: With `O=C(N[C@H](Cc1c[nH]c2ccccc12)C(=O)O)C(=O)c1c[nH]c2ccc(Br)cc12` [Compound 46, 5-bromoindolyl-3-glyoxyl-D-tryptophan] as the compound, how does the inhibition at 20 µM (SARS-CoV-2 3CLpro [2]; read-out: % inhibition @ 20 µM, DTT) read?
Answer: The inhibition at 20 µM was 2.5%.

Question: And the inhibition at 20 µM (SARS-CoV-2 3CLpro [2]; read-out: % inhibition @ 20 µM, No DTT)?
Answer: Its inhibition at 20 µM is 27.4%.

Question: What about the remaining activity at 10 µM [3] of the same compound?
Answer: The remaining activity at 10 µM was 47.7%.

Question: And the IC50 [3]?
Answer: The IC50 was 6.3 µM.

Question: And the inhibition at 60 µM (HEK293 cells; HEK293)?
Answer: The inhibition at 60 µM was 21.5%.

Question: What about the “% Inhibition @ 60 µM, Dd2” value (P. falciparum Dd2; 60 µM, 72 h) of the same compound?
Answer: The value was 97.5%.

Question: And the inhibition at 60 µM (P. falciparum Dd2; Plasmodium falciparum, DD2, 72 h, 60 µM, 72 h)?
Answer: Its inhibition at 60 µM is about 100%.

Question: And the IC50 (P. falciparum Dd2; Plasmodium falciparum)?
Answer: Its IC50 is 8.2 µM.

Question: And the “binding with α-syn” value (α-synuclein)?
Answer: Its value is “α-syn binding displayed”.

Question: What about the inhibition at 60 µM (P. falciparum 3D7; Plasmodium falciparum, 3D7, 72 h, 60 µM, 72 h) of the same compound?
Answer: Its inhibition at 60 µM is about 100%.

Question: And the IC50 (P. falciparum 3D7; Plasmodium falciparum)?
Answer: The IC50 was 7.4 µM.

Question: What about the remaining activity at 10 µM [4] of the same compound?
Answer: The remaining activity at 10 µM was 90.9%.

Question: For `O=C(C(=O)N1CCN(C(=O)c2ccccc2)CC1)c1c[nH]c2ccccc12` [Compound 64], which “inhibition of HIV-1” value (HIV-1) is on record?
Answer: Its value is “nanomolar inhibition”.

Question: Which “anti-prion activity in a yeast-based assay” value (prion; ref [25]) does the source give for `COc1ccc(C/C(=N\O)C(=O)NCCc2cc(Br)c(OCCCN(C)C)c(Br)c2)cc1Br` [Compound 57, aplysamine-2] here?
Answer: Its value is “micromolar anti-prion activities”.

Question: What does the source list for `O=C(N[C@H](Cc1ccc(O)cc1)C(=O)O)C(=O)c1c[nH]c2cc(Br)ccc12` [Compound 52, 6-bromoindolyl-3-glyoxyl-D-tyrosine]?
Answer: % inhibition @ 20 µM, No DTT (SARS-CoV-2 3CLpro [2]; 20 µM, no DTT): 14.0%; % inhibition @ 20 µM, DTT (SARS-CoV-2 3CLpro [2]; 20 µM, with DTT (4 mM)): 4.9%; % enzyme activity @ 10 µM, chymotrypsin [3]: 97.2%; binding with α-syn (protein-ligand complexes in MS) (α-synuclein): α-syn binding displayed; % enzyme activity @ 10 µM, elastase [4]: 97.1%

Question: For `O=C[C@H](C[C@@H]1CCNC1=O)NC(=O)[C@H](CC1CCCCC1)NC(=O)c1cc2ccccc2[nH]1` [Compound 62], which “inhibition of SARS-CoV-2 3CLPro” value (SARS-CoV-2 3CLpro [1]) is on record?
Answer: Its value is “nanomolar inhibition”.

Question: Which results are given for `O=C(N[C@@H](CSSC[C@H](NC(=O)C(=O)c1c[nH]c2cc(Br)ccc12)C(=O)O)C(=O)O)C(=O)c1c[nH]c2cc(Br)ccc12` [Compound 34, 6-bromoindolyl-3-glyoxyl-L-cystine]?
Answer: inhibition at 20 µM (SARS-CoV-2 3CLpro [2]; 20 µM, no DTT, read-out: % inhibition @ 20 µM, No DTT): 86.1%; inhibition at 20 µM (SARS-CoV-2 3CLpro [2]; 20 µM, with DTT (4 mM), read-out: % inhibition @ 20 µM, DTT): 4.6%; IC50 (SARS-CoV-2 3CLpro [2]; no DTT): 6.4 µM; remaining activity at 10 µM [3]: 93.1%; binding with α-syn (protein-ligand complexes in MS) (α-synuclein): α-syn binding displayed; remaining activity at 10 µM [4]: 93.5%
